These are literature values, as cited in patent publication US20060057620A1, “Treatment of HIV infection” (priority 2004, published 2006).

The data set deals with circulating T-cells. The following applies: FIG. 1.

Take alemtuzumab: the “time to full recovery of T-cells” value (after a single dose) was at least 3 months. In addition, under “single dose”, the “killing of circulating T-cells (T-cell depletion)” value is given as “able to kill all circulating T-cells”.
